Assay results: PMC8498107 (Frontiers in Molecular Neuroscience, 2021)

Assays:
GlyR α1β (wild-type) = molecular target: T1, GlyR α1β (wild-type) (Homo sapiens, UniProt P23415+P48167); format: cell-based
T1 construct: Full-length cDNAs encoding the human wild-type (WT) or mutated GlyR β variants; expressed in transfected cells; host or cells: HEK-293
Description: (§1) Full-length cDNAs encoding the human wild-type (WT) or mutated GlyR β variants (β^x) (with x = Y252S, S321F, and A455P) were cloned into the eukaryotic expression vector pRK5 (gift from †P. Seeburg, Heidelberg) and mutagenesis was performed as previously described ([James et al., 2013]). GlyR β variants were further subcloned into pRK5 harboring a myc-epitope at the N-terminus 5′ of residues ^1KEKS^4 representing the first amino acids of the mature GlyR β sequence. eGFP-gephyrin constructs were previously described ([Harvey et al., 2004]). All expression constructs were fully sequenced to verify successful mutagenesis.
(§2) HEK-293 cells were transiently transfected using a modified calcium-phosphate precipitation method. Transfection was performed at a confluency of 50–75%, 24 h after seeding of 200,000 cells on glass cover slips in 35 mm culture dishes or 1.5 × 10^6 cells per 10 cm dish. For 35 mm and 10 cm culture dishes GlyR α1, GlyR β or GlyR β variants and eGFP-gephyrin were transfected in a ratio of cDNAs 1:10:5, e.g., 0.2 μg α1, 2 μg β, and 1 μg of eGFP-gephyrin for 35 mm dishes. To label cellular compartments, low copy number vectors were used to exclude effects from overexpression [1 μg; dsRed MEM = fusion of sequence from neuromodulin (GAP-43) and dsRed to label the plasma membrane or dsRed ER = fusion construct of dsRed and calreticulin sequence to label the ER]. The DNA was supplied with 2.5 M CaCl2, 0.1x TE buffer and 2x HBS buffer (50 mM HEPES, 12 mM glucose, 10 mM KCl, 280 mM NaCl, 1.5 mM Na2HPO4) mixed and incubated for 20 min at room temperature. The medium was exchanged after 4–6 h and cells were used for experiments 24–48 h after transfection.
(§3) Electrophysiological characterization was performed on transfected HEK-293 cells using the patch-clamp method for whole cell recordings. Experiments were performed at room temperature. […] Current responses were amplified with an EPC-9 amplifier (HEKA Elektronik GmbH, Lambrecht/Pfalz, Germany) and measured at a holding potential of −60 mV using PatchMaster Next software (HEKA Elektronik GmbH, Lambrecht/Pfalz, Germany).

[1] = molecular target: T2, GlyR α1β (wild-type) + eGFP-gephyrin (Homo sapiens, UniProt P23415+P48167); format: cell-based
T2 construct: Full-length cDNAs encoding the human wild-type (WT) or mutated GlyR β variants; expressed in transfected cells; host or cells: HEK-293
T2 sequence (P48167 23-497, one chain of several): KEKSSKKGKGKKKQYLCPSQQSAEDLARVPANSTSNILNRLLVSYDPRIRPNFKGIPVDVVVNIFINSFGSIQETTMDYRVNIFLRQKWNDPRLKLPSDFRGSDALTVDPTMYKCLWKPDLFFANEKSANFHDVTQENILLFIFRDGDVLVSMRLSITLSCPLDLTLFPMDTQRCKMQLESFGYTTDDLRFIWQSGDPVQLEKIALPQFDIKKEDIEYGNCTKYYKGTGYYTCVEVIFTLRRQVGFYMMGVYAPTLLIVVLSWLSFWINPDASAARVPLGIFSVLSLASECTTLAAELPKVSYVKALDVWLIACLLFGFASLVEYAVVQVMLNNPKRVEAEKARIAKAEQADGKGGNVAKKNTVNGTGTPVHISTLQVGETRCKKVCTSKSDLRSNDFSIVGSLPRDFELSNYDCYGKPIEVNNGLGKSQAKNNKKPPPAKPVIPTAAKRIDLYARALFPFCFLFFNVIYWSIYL
Description: as §1, §2, §3

GlyR α1β^A455P = molecular target: T3, GlyR α1β^A455P (Homo sapiens, UniProt P23415+P48167, A477P); format: cell-based
T3 construct: Full-length cDNAs encoding the human wild-type (WT) or mutated GlyR β variants; expressed in transfected cells; host or cells: HEK-293
T3 sequence (P48167 23-497 A477P, one chain of several): as the sequence (P48167 23-497, one chain of several) above, with A455P counted along it
Description: as §1, §2, §3

[2] = molecular target: T4, GlyR α1β^A455P + eGFP-gephyrin (Homo sapiens, UniProt P23415+P48167, A477P); format: cell-based
T4 construct: Full-length cDNAs encoding the human wild-type (WT) or mutated GlyR β variants; expressed in transfected cells; host or cells: HEK-293
T4 sequence (P48167 23-497 A477P, one chain of several): as the sequence (P48167 23-497, one chain of several) above, with A455P counted along it
Description: as §1, §2, §3

GlyR α1β^S321F = molecular target: T5, GlyR α1β^S321F (Homo sapiens, UniProt P23415+P48167, S343F); format: cell-based
T5 construct: Full-length cDNAs encoding the human wild-type (WT) or mutated GlyR β variants; expressed in transfected cells; host or cells: HEK-293
T5 sequence (P48167 23-497 S343F, one chain of several): as the sequence (P48167 23-497, one chain of several) above, with S321F counted along it
Description: as §1, §2, §3

[3] = molecular target: T6, GlyR α1β^S321F + eGFP-gephyrin (Homo sapiens, UniProt P23415+P48167, S343F); format: cell-based
T6 construct: Full-length cDNAs encoding the human wild-type (WT) or mutated GlyR β variants; expressed in transfected cells; host or cells: HEK-293
T6 sequence (P48167 23-497 S343F, one chain of several): as the sequence (P48167 23-497, one chain of several) above, with S321F counted along it
Description: as §1, §2, §3

GlyR α1β^Y252S = molecular target: T7, GlyR α1β^Y252S (Homo sapiens, UniProt P23415+P48167, Y274S); format: cell-based
T7 construct: Full-length cDNAs encoding the human wild-type (WT) or mutated GlyR β variants; expressed in transfected cells; host or cells: HEK-293
T7 sequence (P48167 23-497 Y274S, one chain of several): as the sequence (P48167 23-497, one chain of several) above, with Y252S counted along it
Description: as §1, §2, §3

[4] = molecular target: T8, GlyR α1β^Y252S + eGFP-gephyrin (Homo sapiens, UniProt P23415+P48167, Y274S); format: cell-based
T8 construct: Full-length cDNAs encoding the human wild-type (WT) or mutated GlyR β variants; expressed in transfected cells; host or cells: HEK-293
T8 sequence (P48167 23-497 Y274S, one chain of several): as the sequence (P48167 23-497, one chain of several) above, with Y252S counted along it
Description: as §1, §2, §3

GlyR α1 homomers = molecular target: T9, GlyR α1 homomers (Homo sapiens, UniProt P23415); assay: picrotoxinin block of the glycine-gated response, whole-cell patch-clamp in HEK-293 cells; format: cell-based; details: 100 μM glycine + 100 μM picrotoxinin compared to 100 μM glycine alone
T9 construct: expressed in transfected cells; host or cells: HEK-293
T9 sequence (P23415 29-457): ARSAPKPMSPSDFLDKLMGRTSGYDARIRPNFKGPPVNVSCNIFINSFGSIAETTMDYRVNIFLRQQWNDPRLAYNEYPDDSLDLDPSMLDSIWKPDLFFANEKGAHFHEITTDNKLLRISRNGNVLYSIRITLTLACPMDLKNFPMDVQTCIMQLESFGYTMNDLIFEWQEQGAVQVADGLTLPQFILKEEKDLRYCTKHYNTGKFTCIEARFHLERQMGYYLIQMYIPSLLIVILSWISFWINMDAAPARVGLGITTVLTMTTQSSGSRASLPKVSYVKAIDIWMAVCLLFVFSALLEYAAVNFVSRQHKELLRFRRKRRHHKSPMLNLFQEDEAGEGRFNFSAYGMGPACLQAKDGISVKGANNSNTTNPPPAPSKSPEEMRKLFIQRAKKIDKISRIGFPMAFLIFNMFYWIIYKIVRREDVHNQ
Description: as §2, with “The medium was exchanged after 4–6 h and cells were used for experiments 24–48 h after transfection.” left out
as §3, with “recordings.” for “recordings. Experiments were performed at room temperature.”

α1β^x channels = assay: as above; format: cell-based, human; details: 100 μM glycine + 100 μM picrotoxinin compared to 100 μM glycine alone
Description: as §1
HEK-293 cells were transiently transfected using a modified calcium-phosphate precipitation method. Transfection was performed at a confluency of 50–75%, 24 h after seeding of 200,000 cells on glass cover slips in 35 mm culture dishes or 1.5 × 10^6 cells per 10 cm dish. […]
as §3, with “recordings.” for “recordings. Experiments were performed at room temperature.”

hyperekplexia phenotype = tested on: hyperekplexia phenotype; parameters: method as in Bode and Lynch, 2014; details: clinical, gain-of-function and loss-of-function mutations; ref Bode and Lynch, 2014; cited from earlier work
[5] = tested on: heteromeric αβ channels versus homomeric α subunit GlyRs; parameters: method as in Pribilla et al., 1992; details: heteromeric αβ channels almost unaffected; ref Pribilla et al., 1992; cited from earlier work
[6] = residual current, 100 μM picrotoxinin + 100 μM glycine versus 100 μM glycine alone
[7] = in the presence of eGFP-gephyrin, remaining current, 100 μM glycine + 100 μM picrotoxinin versus 100 μM glycine alone

T1 sequence (P48167 23-497, one chain of several): as the sequence (P48167 23-497, one chain of several) above

Q: For C=C(C)[C@@H]1[C@H]2OC(=O)[C@@H]1[C@]1(O)C[C@H]3O[C@]34C(=O)O[C@H]2[C@]14C [picrotoxinin], which “I 100 μM picrotoxinin + glycine/I 100 μM glycine” value (GlyR α1β (wild-type); [6]) is on record?
A: 90 ± 11%

Q: And the “Ipicrotoxinin + glycine/ Iglycine” value [1, 7]?
A: 72 ± 7%

Q: What about the “I 100 μM picrotoxinin + glycine/I 100 μM glycine” value (GlyR α1β^A455P; [6]) of the same molecule?
A: 86 ± 10%

Q: What about the “Ipicrotoxinin + glycine/ Iglycine” value [2, 7] of the same molecule?
A: 92 ± 17%

Q: What about the “I 100 μM picrotoxinin + glycine/I 100 μM glycine” value (GlyR α1β^S321F; [6]) of the same molecule?
A: 111 ± 15%

Q: What about the “Ipicrotoxinin + glycine/ Iglycine” value [3, 7] of the same molecule?
A: 73 ± 4%

Q: What about the “I 100 μM picrotoxinin + glycine/I 100 μM glycine” value (GlyR α1β^Y252S; [6]) of the same molecule?
A: 99 ± 19%

Q: What about the “Ipicrotoxinin + glycine/ Iglycine” value [4, 7] of the same molecule?
A: 84 ± 9%

Q: And the “reduction in current amplitude of the original value (block of the glycine-gated response)” value (GlyR α1 homomers)?
A: 29.22%

Q: What about the picrotoxinin block (α1β^x channels) of the same molecule?
A: 0–19%

Q: With O=C1CN=C(c2ccccc2Cl)c2cc([N+](=O)[O-])ccc2N1 [clonazepam] as the molecule, how does the “treatment of the hyperekplexia phenotype” value (hyperekplexia phenotype) read?
A: effective treatment in many cases

Q: Which results are given for NCC(=O)O [glycine]?
A: Imax (GlyR α1β (wild-type)): 4.1 ± 0.4 nA; Imax [1]: 2.9 ± 1.0 nA; Imax (GlyR α1β^A455P): 9.5 ± 1.2 nA; Imax [2]: 6.6 ± 1.1 nA; Imax (GlyR α1β^S321F): 5.1 ± 0.7 nA; Imax [3]: 4.1 ± 0.7 nA; Imax (GlyR α1β^Y252S): 4.7 ± 0.6 nA; Imax [4]: 3.7 ± 0.9 nA

Q: For picrotoxin, which “fold less effective on heteromeric αβ channels than on homomeric α subunit GlyRs” value [5] is on record?
A: 50–200 fold
